Where “and” joins values, the source holds several entries; their conditions need not be identical. Equal entries are not always repeated. Where only a bound is given, the exact number is not on record here.

In general, IC50 refers to the concentration that gives 50% inhibition. A word on the inhibition: it is the relative decrease from the control value, in per cent.

The target of experiment [1] is T1, ETB (rat cerebellar membranes) (Rattus norvegicus, UniProt P21451).
T1 construct: thaw one aliquot of frozen rat cerebellar membranes; from tissue; host or cells: rat cerebellar membranes
T1 sequence (P21451 27-442): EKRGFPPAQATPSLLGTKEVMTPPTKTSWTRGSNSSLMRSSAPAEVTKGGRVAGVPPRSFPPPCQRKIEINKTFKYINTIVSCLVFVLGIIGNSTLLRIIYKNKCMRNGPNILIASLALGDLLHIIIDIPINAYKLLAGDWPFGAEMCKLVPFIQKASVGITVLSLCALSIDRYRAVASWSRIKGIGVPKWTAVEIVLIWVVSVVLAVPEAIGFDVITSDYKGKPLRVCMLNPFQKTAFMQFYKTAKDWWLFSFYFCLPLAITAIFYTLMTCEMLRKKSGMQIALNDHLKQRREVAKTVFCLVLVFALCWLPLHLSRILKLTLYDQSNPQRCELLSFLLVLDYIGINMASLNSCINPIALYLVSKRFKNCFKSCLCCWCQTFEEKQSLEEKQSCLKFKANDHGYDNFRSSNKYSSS
Put plainly: Endothelin receptor binding assay-B (ERBA-B), [125I]-ET-1 binding in rat cerebellar membranes. The conditions noted are these: for Selectivity ETA / ETB from Table I: ERBA-A versus ERBA-B; for IC50: rat cerebellar membranes, [125I]-ET-1 25 pM. The protocol:
(§1) The compounds of Formula I are valuable antagonists of endothelin. […] Compounds of Formula I were tested for their ability to inhibit [^125 I]-ET-1([^125 I]-Endothelin-1) binding in a receptor assay according to the following procedures Doherty, A. M., et al, J. Cardiovascul. Pharmacol. 17(Suppl 7):S59-61 (1991) and Doherty, A. M., et al, Bio. Org. Med. Chem. Lett. in press (1992):
ENDOTHELIN RECEPTOR BINDING ASSAY-B (ERBA-B) [^125 I]-ET-1 BINDING IN RAT CEREBELLAR MEMBRANES
The tissue is made up of 20 mM tris(hydroxy-methyl)aminomethane hydrochloride (Trizma) buffer, 2 mM ethylenediaminetetra acetate, 100 μM phenylmethylsulfonyl fluoride.
First, thaw one aliquot of frozen rat cerebellar membranes (2 mg protein in 0.5 mL). Next, add 0.5 mL membrane aliquot to 4.5 mL cold tissue buffer, polytron at 7,500 revolutions per minute for 10 seconds. Finally, dilute tissue suspension 1/100 (0.1 mL suspension+9.9 mL tissue buffer), polytron again, and place ice.
Medium 199 with Hank's salts plus 25 mM Hepes+1 mg/mL bovine serum albumin.
Amersham [^125 I]-ET-1 (aliquots of 2×10^6 cpm per […] aliquot of [^125 I]-ET-1 with 5.2 mL dilution buffer, place on ice until use (final concentration will be 20,000 cpm per tube, or 25 pM).
Add 50 μL each of cold [^125 ]-ET-1 and competing ligand to tubes on ice. Mix in 150 μL of tissue to each tube, vortex briefly, then tap to force all liquids to bottom (total assay volume=250 μL). Then place the tubes in a 37° C. water bath for 2 hours.
Add 2.5 mL cold wash buffer (50 mM Trizma buffer) to each tube, filter, and then wash tube with additional 2.5 mL wash buffer and add to filter. Finally, wash filters with an additional 2.5 mL of cold wash buffer.
Count filters for radioactivity in gamma counter.

The target in experiment [2] is T2, ETA (rabbit renal artery vascular smooth muscle cells) (Oryctolagus cuniculus, UniProt A5A8K3).
T2 construct: The cells used were rabbit renal artery vascular smooth muscle cells; endogenous in cells; host or cells: rabbit renal artery vascular smooth muscle cells
T2 sequence (A5A8K3 21-427): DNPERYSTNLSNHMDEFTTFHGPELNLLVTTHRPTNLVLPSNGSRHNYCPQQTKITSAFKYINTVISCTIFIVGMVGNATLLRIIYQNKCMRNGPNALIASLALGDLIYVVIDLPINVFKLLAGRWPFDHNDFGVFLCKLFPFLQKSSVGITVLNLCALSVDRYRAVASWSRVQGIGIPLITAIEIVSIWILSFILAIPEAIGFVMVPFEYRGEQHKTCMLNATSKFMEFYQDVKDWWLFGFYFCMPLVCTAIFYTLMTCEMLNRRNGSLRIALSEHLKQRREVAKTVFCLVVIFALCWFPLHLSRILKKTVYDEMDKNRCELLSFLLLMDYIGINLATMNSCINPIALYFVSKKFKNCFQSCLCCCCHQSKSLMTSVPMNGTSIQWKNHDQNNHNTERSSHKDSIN
Put plainly: Endothelin receptor binding assay-A (ERBA-A), intact cell binding of [125I]-ET-1. The protocol: as §1
ENDOTHELIN RECEPTOR BINDING ASSAY-A (ERBA-A) INTACT CELL BINDING OF [^125 I]-ET-1
The cells used were rabbit renal artery vascular smooth muscle cells grown in a 48-well dish (1 cm^2) (confluent cells).
The growth media was Dulbeccos Modified Eagles/Ham's F12 which contained 10% fetal bovine serum and antibiotics (penicillin/streptomycin/fungizone).
The assay buffer was a medium 199 containing Hanks salts and 25 mM Hepes buffer (Gibco 380-2350AJ), supplemented with penicillin/streptomycin/fungizone (0.5%) and bovine serum albumin (1 mg/mL).
Amersham radioiodinated endothelin-1 [^125 I]-ET-1 was used at final concentration of 20,000 cpm/0.25 mL (25 pM).
Second, remove the assay buffers, place the dish on ice, and add 150 μL of cold assay buffer described above to each well. Third, add 50 μL each of cold [^125 I]-ET-1 and competing ligand to the solution (at the same time if possible). Next, place dish in a 37° C. water bath for about 2 hours and gently agitate the dish every 15 minutes. Discard the radioactive incubation mixture in the sink and wash wells three times with […] of cold phosphate buffered saline. Last, add […] of 0.25 molar sodium hydroxide, agitate for 1 hour on a rotator, and then transfer the sodium hydroxide extract to gamma counting tubes and count the radioactivity.

For experiment [3], the target named is endothelin receptor (Human Placenta). Put plainly: [125I]-ET-1 receptor binding, Human Placenta. The procedure:
(§2) The compounds of Formula I are valuable antagonists of endothelin. […] Compounds of Formula I were tested for their ability to inhibit [^125 I]-ET-1([^125 I]-Endothelin-1) binding in a receptor assay according to the following procedures Doherty, A. M., et al, J. Cardiovascul. Pharmacol. 17(Suppl 7):S59-61 (1991) and Doherty, A. M., et al, Bio. Org.

In experiment [4] the target is endothelin receptor (Rat Heart). Put plainly: [125I]-ET-1 receptor binding, Rat Heart. The protocol: as §2

As for `CC(Cc1c[nH]c2ccccc12)(NC(=O)OC1C2CC3CC(C2)CC1C3)C(=O)NC(C=CC=CC(=O)O)Cc1ccccc1` (stereo not drawn) [Compound 14, [R-[R*,S*-(E,E)]]-6-[[3-(1H-indol-3-yl)-2-methyl-1-oxo-2-[[(tricyclo[3.3.1.1^3,7]dec-2-yloxy)-carbonyl]amino]propyl]amino]-7-phenyl-2,4-heptadienoic acid], in experiment [1], the “ERBA-B % inhibition at 10 μM” value is on record as 39.8%. Besides, the “ERBA-A % inhibition at 10 μM” value in experiment [2] came out at 54.3%.
For the compound `CC(Cc1c[nH]c2ccccc12)(NC(=O)OC1C2CC3CC(C2)CC1C3)C(=O)NC(CSCC(=O)O)Cc1ccccc1` (stereo not drawn) [Compound 2, [R-(R*,S*)]-[[2-[[3-(1H-indol-3-yl)-2-methyl-1-oxo-2-[[(tricyclo[3.3.1.1^3,7]dec-2-yloxy)carbonyl]-amino]propyl]amino]-3-phenylpropyl]thio]acetic acid], the IC50 in experiment [3] is 9.88 µM; in experiment [4], 9.06 µM.
Take `Cc1[nH]c2ccccc2c1C[C@@H](NC(=O)OC1C2CC3CC(C2)CC1C3)C(=O)N[C@@H](Cc1ccccc1)C(=O)NCC(=O)O` (stereo partly drawn) [Compound 10, N-[2-methyl-N-[(tricyclo[3.3.1.1^3,7]dec-2-yloxy)carbonyl]-D-tryptophyl]-L-phenylalanyl-glycine]: the inhibition at 10 µM was 39.7% in experiment [1] and 45% in experiment [2].
For `C[C@](Cc1c[nH]c2ccccc12)(NC(=O)OC1C2CC3CC(C2)CC1C3)C(=O)N(CCc1ccccc1)CC(=O)O` (stereo partly drawn) [Compound 12, N-[α-methyl-N-[(tricyclo[3.3.1.1^3,7]dec-2-yloxy)carbonyl]-D-tryptophyl]-N-(2-phenylethyl)-glycine], in experiment [1], the inhibition at 10 µM worked out at 86%, the “Selectivity ETA / ETB from Table I” value is on record as “selective for ETB” and the IC50 worked out at 1800 nM. In addition, the inhibition at 10 µM in experiment [2] worked out at 4.1%.
`C[C@](Cc1c[nH]c2ccccc12)(NC(=O)NC1CCCCC1)C(=O)O` [Compound 16, N-[(cyclohexylamino)carbonyl]-α-methyl-D-tryptophan]: the IC50 in experiment [1] is above 10000 nM; in experiment [2] (rabbit renal artery vascular smooth muscle cells, [125I]-ET-1 25 pM), 1500 nM.
As to `C[C@](Cc1c[nH]c2ccccc12)(NC(=O)OC1C2CC3CC(C2)CC1C3)C(=O)N(CCC(=O)O)CCc1ccccc1` (stereo partly drawn) [Compound 8, (R)-3-[[3-(1H-indol-3-yl) -2-methyl-1-oxo-2-[[(tricyclo[3.3.1.1^3,7]dec-2-yloxy)carbonyl]amino]-propyl](2-phenylethyl)amino]propanoic acid], the IC50 in experiment [1] was 910 nM and 1800 nM. For the same compound, the inhibition at 10 µM in experiment [2] was 25%.
`C[C@](Cc1c[nH]c2ccccc12)(NC(=O)OC1C2CC3CC(C2)CC1C3)C(=O)NC(CC(=O)O)Cc1ccc(N)cc1` (stereo partly drawn) [Compound 9, L-3-[(4-aminophenyl)methyl]-N-[α-methyl-N-[(tricyclo[3.3.1.1^3,7]dec-2-yloxy)carbonyl]-D-tryptophyl]-β-alanine]: the “ERBA-B % inhibition at 10 μM” value in experiment [1] turned out to be 9.4%. In experiment [2], the “ERBA-A % inhibition at 10 μM” value worked out at 33.5%.
As for `CC(Cc1c[nH]c2ccccc12)(NC(=O)OC1C2CC3CC(C2)CC1C3)C(=O)NC(CC(=O)O)Cc1ccc([N+](=O)[O-])cc1` (stereo not drawn) [Compound 11, [R-(R*,S*)]-β-[[3-(1H-indol-3-yl)-2-methyl-1-oxo-2-[[(tricyclo[3.3.1.1^3,7]dec-2-yloxy)carbonyl]-amino]propyl]amino]-4-nitrobenzenebutanoicacid], in experiment [1], the “ERBA-B % inhibition at 10 μM” value is given as 51.4%. The “ERBA-A % inhibition at 10 μM” value in experiment [2] stood at 47.7%.
For the compound `CC(Cc1c[nH]c2ccccc12)(NC(=O)OC1C2CC3CC(C2)CC1C3)C(=O)NC(CC(=O)O)Cc1ccccc1` (stereo not drawn) [Compound 3, [R-(R*,S*)]-β-[[3-(1H-indol-3-yl)-2-methyl-1-oxo-2-[[(tricyclo[3.3.1.1^3,7]dec-2-yloxy)carbonyl]-amino]propyl]amino]benzenebutanoic acid], the IC50 in experiment [3] is 0.96 µM; in experiment [4], 7.91 µM.
`CC(Cc1c[nH]c2ccccc12)(NC(=O)OC1C2CC3CC(C2)CC1C3)C(=O)NC(C=CC(=O)O)Cc1ccccc1` (stereo not drawn) [Compound 6, [R-[R*,S*-(E)]]-4-[[3-(1H-indol-3-yl)-2-methyl-1-oxo-2-[[(tricyclo[3.3.1.1^3,7]dec-2-yloxy)carbonyl]-amino]propyl]amino]-5-phenyl-2-pentenoic acid] had an IC50 in experiment [1] of 870 nM.
Take `CC(Cc1c[nH]c2ccccc12)(NC(=O)OC1C2CC3CC(C2)CC1C3)C(=O)NC(CCC(=O)O)Cc1ccccc1` (stereo not drawn) [Compound 7, [R-(R*,S*)]-γ-[[3-(1H-indol-3-yl)-2-methyl-1-oxo-2-[[(tricyclo[3.3.1.1^3,7]dec-2-yloxy)carbonyl]-amino]propyl]amino]benzenepentanoic acid]: the IC50 in experiment [1] was 870 nM.
For `C[C@](Cc1c[nH]c2ccccc12)(NC(=O)OC1C2CC3CC(C2)CC1C3)C(=O)NC(CC(=O)O)Cc1ccccc1` (stereo partly drawn) [Compound 5, N-[α-methyl-N-[(tricyclo[3.3.1.1^3,7]dec-2-yloxy)carbonyl]-D-tryptophyl]-D-3-(phenylmethyl)-β-alanine], the IC50 is 3.84 µM in experiment [3] and 34.5 µM in experiment [4].
On to `CC(Cc1c[nH]c2ccccc12)(NC(=O)OC1C2CC3CC(C2)CC1C3)C(=O)N(CCc1ccccc1)CC(=O)O` (racemic) [Compound 13, (±)-N-[3-(1H-indol-3-yl)-2-methyl-1-oxo-2-[[(tricyclo[3.3.1.1^3,7]dec-2-yloxy)carbonyl]amino]-propyl]-N-(2-phenylethyl)glycine], for which, in experiment [1], the inhibition at 10 µM was determined as 72.3%, the “Selectivity ETA / ETB from Table I” value is listed as “selective for ETB” and the IC50 came to 4000 nM. Besides, in experiment [2], the inhibition at 10 µM is -0.2%.
Consider `CC(Cc1c[nH]c2ccccc12)(NC(=O)OC1C2CC3CC(C2)CC1C3)C(=O)NC(CCCCC(=O)O)Cc1ccccc1` (stereo not drawn) [Compound 15, [R-(R*,S*)]-ε-[[3-(1H-indol-3-yl)-2-methyl-1-oxo-2-[[(tricyclo[3.3.1.1^3,7]dec-2-yloxy)carbonyl]-amino]propyl]amino]benzeneheptanoic acid], for which, in experiment [1], the “ERBA-B % inhibition at 10 μM” value was 36.5%. Also, the “ERBA-A % inhibition at 10 μM” value in experiment [2] amounted to 51.6%.

These data come from US5922681A, “Endothelin antagonists” (Warner-Lambert Company, priority 1992, dated 1999).
